According to article PMC7933116 (Cell metabolism, 2020):

Target: MCT1 (Homo sapiens, UniProt P53985)
Assay: BCECF fluorescence lactate transport assay in MCT1-expressing BT20 cells
Assay type: cell-based

Chain of MCT1 (P53985 whole entry): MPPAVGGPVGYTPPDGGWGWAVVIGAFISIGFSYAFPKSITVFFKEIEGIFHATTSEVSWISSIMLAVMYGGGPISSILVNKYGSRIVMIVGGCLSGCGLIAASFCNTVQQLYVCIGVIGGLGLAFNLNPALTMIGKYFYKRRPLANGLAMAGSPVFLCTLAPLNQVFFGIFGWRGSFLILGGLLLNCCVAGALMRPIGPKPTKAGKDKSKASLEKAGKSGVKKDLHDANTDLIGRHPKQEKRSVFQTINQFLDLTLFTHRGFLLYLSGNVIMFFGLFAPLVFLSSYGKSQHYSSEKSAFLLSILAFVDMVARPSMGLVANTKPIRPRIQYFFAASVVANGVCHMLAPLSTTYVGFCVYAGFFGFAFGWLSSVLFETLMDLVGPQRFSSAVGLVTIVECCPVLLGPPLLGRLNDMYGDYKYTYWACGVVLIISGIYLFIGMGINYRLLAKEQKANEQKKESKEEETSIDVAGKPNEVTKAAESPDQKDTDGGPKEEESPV

CC(C)(OCc1cc(-c2cccc(OC3CC3)c2)n(-c2ccccc2Cl)n1)C(=O)O [VB124, 2-[[1-(2-chlorophenyl)-5-(3-cyclopropoxyphenyl)-1H-pyrazol-3-yl]methoxy]-2-methylpropanoic acid]
IC50: 24 µM
